In ChEMBL document CHEMBL5143585, “Discovery and characterization of benzyloxy piperidine based dopamine 4 receptor antagonists” (Bioorg Med Chem Lett, 2022):

Experiments:
[1] = biological target: T1, D(4) dopamine receptor (Homo sapiens, UniProt P21917); assay: Displacement of [3H]N-methylspiperone from human D4 receptor expressed in HEK293 cell membrane by competitive inhibition based analysis; type: cell membranes
T1 sequence (P21917 whole entry): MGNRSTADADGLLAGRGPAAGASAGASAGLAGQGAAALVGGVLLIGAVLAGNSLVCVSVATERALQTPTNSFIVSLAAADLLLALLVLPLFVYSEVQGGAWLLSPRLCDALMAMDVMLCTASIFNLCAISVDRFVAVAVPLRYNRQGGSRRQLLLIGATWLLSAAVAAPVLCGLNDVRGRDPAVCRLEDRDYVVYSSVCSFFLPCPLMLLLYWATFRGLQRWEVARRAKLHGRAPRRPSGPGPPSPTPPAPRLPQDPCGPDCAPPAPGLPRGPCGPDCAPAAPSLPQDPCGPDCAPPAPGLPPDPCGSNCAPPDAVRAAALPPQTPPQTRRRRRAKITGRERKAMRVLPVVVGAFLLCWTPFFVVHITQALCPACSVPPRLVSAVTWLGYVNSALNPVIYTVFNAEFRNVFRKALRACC

[2] = biological target: D(2) dopamine receptor (Homo sapiens) (UniProt P14416); assay: Displacement of [3H]N-methylspiperone from human D2 receptor expressed in HEK293 cell membrane at 10 uM by competitive inhibition based analysis; type: cell membranes
D(2) dopamine receptor (Homo sapiens), sequence (P14416 whole entry): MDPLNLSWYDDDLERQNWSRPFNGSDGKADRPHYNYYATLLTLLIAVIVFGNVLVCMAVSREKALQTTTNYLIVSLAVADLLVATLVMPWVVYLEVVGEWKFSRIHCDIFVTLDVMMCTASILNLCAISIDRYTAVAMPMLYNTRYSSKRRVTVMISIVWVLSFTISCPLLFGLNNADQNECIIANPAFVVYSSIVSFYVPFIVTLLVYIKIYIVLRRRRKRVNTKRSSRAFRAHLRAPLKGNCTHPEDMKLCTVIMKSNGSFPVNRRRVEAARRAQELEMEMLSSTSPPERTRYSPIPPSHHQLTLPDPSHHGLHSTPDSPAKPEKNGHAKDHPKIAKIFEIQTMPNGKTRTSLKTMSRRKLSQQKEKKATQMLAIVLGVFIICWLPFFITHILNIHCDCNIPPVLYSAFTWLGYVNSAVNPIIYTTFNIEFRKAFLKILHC

[3] = Protein binding in mouse plasma assessed as unbound fraction; type: ADME, cell-free
[4] = Intrinsic clearance in human liver microsomes; type: ADME, Microsome; conditions: read-out: CLH
[5] = Protein binding in human plasma assessed as unbound fraction; type: ADME, cell-free
[6] = biological target: T2, D(3) dopamine receptor (Homo sapiens, UniProt P35462); assay: Displacement of [3H]N-methylspiperone from human D3 receptor expressed in HEK293 cell membrane by competitive inhibition based analysis; type: cell membranes
T2 sequence (P35462 whole entry): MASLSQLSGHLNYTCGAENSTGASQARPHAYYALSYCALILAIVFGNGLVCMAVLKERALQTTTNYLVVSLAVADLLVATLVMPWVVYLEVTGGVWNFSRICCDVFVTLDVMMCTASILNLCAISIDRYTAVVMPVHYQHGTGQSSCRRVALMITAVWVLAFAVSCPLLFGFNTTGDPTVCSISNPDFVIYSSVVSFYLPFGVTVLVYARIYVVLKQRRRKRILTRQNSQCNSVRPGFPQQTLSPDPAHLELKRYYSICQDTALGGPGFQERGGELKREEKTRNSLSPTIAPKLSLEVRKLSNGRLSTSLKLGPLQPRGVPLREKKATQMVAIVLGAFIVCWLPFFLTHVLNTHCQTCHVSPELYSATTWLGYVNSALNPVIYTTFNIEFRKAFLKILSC

[7] = Half-life in rat at 0.25 mg/kg, iv measured for 24 hrs; type: ADME, organism-based; conditions: in vivo
[8] = biological target: T3, D(1B) dopamine receptor (Homo sapiens, UniProt P21918); assay: Displacement of [3H]-SCH23390 from human D5 receptor expressed in HEK293 cell membrane by competitive inhibition based analysis; type: cell membranes
T3 sequence (P21918 whole entry): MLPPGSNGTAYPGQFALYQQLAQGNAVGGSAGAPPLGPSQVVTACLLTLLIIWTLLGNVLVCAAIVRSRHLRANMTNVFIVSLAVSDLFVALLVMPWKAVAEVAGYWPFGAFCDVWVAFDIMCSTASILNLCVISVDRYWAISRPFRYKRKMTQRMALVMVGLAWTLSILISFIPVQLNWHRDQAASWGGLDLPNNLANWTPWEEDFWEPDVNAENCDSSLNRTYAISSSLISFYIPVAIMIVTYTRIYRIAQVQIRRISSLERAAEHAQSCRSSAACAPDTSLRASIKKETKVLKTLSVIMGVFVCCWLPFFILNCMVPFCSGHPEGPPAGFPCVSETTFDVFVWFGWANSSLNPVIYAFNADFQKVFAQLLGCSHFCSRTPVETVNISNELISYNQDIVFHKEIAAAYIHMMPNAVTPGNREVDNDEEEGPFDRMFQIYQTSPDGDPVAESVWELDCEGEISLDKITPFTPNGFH

[9] = Plasma concentration in rat at 0.25 mg/kg, iv measured on day 2 at 0.25 hrs post-dose; type: ADME, organism-based; conditions: time 2 day
[10] = biological target: D(1A) dopamine receptor (Homo sapiens, UniProt P21728); assay: Displacement of [3H]-SCH23390 from human D1 receptor expressed in HEK293 cell membrane at 10 uM by competitive inhibition based analysis; type: cell membranes
D(1A) dopamine receptor, sequence (P21728 whole entry): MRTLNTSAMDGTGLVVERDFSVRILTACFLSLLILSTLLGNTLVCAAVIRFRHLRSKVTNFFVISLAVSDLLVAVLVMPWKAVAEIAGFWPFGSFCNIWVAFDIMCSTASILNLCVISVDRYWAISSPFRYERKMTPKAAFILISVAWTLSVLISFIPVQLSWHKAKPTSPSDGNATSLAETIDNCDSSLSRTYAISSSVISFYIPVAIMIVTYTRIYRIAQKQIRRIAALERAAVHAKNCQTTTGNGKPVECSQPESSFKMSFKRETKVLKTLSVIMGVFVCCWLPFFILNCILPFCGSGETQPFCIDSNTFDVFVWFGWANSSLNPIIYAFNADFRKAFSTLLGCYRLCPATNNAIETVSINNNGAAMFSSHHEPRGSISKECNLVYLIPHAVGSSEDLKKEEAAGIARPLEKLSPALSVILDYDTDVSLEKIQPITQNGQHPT

[11] = Ratio of drug level in rat brain to plasma at 0.25 mg/kg, iv measured on day 2 at 0.25 hrs post-dose; type: ADME, organism-based; conditions: time 2 day, read-out: BPR
[12] = Drug uptake in rat brain at 0.25 mg/kg, iv measured on day 2 at 0.25 hrs post-dose; type: ADME, organism-based; conditions: time 2 day, read-out: Drug uptake
[13] = AUC in rat at 0.25 mg/kg, iv measured for 24 hrs; type: ADME, organism-based; parameters: time 24 hrs, dose 0.25 mg/kg, route iv; conditions: in vivo
[14] = Initial plasma concentration in rat at 0.25 mg/kg, iv; type: ADME, organism-based
[15] = biological target: T3, D(1B) dopamine receptor; assay: Displacement of [3H]-SCH23390 from human D5 receptor expressed in HEK293 cell membrane at 10 uM by competitive inhibition based analysis; type: cell membranes
[16] = biological target: T2, D(3) dopamine receptor; assay: Displacement of [3H]N-methylspiperone from human D3 receptor expressed in HEK293 cell membrane at 10 uM by competitive inhibition based analysis; type: cell membranes
[17] = biological target: T4, D(4) dopamine receptor (Homo sapiens) (UniProt P21917); assay: Displacement of [3H]N-methylspiperone from human D4 receptor expressed in HEK293 cell membrane at 10 uM by competitive inhibition based analysis; type: cell membranes
T4 sequence (whole entry): T1 sequence (P21917 whole entry)

[18] = Volume of distribution at steady state in rat at 0.25 mg/kg, iv measured for 24 hrs; type: ADME, organism-based; conditions: in vivo

| Compound | IC50 [1] | Ki [1] | inhibition [2] | Fu [3] | Fu [5] | Ki [6] | t1/2 [7] | Ki [8] | concentration at 48 h [9] | inhibition [10] | Kp at 48 h [11] | concentration at 48 h [12] | AUC [13] | inhibition ([15]; filed as antagonist) | inhibition ([16]; filed as antagonist) | inhibition [16] | inhibition [15] | C0 ([14]; in vivo, iv, 0.25 mg/kg) | Vdss [18] | also measured |
| --- | --- | --- | --- | --- | --- | --- | --- | --- | --- | --- | --- | --- | --- | --- | --- | --- | --- | --- | --- | --- |
| COc1ccc(CN2CCO[C@H](COc3ccccc3)C2)cc1F | 5.01 nM | 5.8 nM | < 50% | 3.7% |  |  |  |  |  |  |  |  |  |  |  |  |  |  |  | CLint scaled [4]: 71.9 mL/min/kg |
| Fc1ccc(COC2CCN(Cc3cc4ccc(Cl)cc4[nH]3)CC2)cc1F | 148 nM | 149 nM | < 50% | 0.4% | < 0.3% | 965 nM | 1.8 h | 3.99 µM | 19.4 ng/mL | < 50% | 28.9 | 562 ng/g | 126 ng·h/mL | 64% | 73% |  |  |  |  | C0 ([14]; plasma, read-out: C0): 12.6 ng/mL |
| Cc1cc(CO[C@H]2CCCN(c3ccc(Cl)cc3)C2)ccc1F |  |  | < 50% |  |  |  |  | > 10 µM |  | < 50% |  |  |  | 66% |  | < 50% |  |  |  | inhibition [17]: 4.7% |
| Fc1cccc(CO[C@H]2CCCN(c3ccc(Cl)cc3)C2)c1 |  |  | < 50% |  |  | > 10000 nM |  |  |  | < 50% |  |  |  |  | 71% |  | < 50% |  |  | inhibition [17]: -10% |
| Fc1ccc(COC2CCN(Cc3cn4ccccc4n3)CC2)cc1F | 339 nM | 337 nM | < 50% | 42.8% | 6.2% |  | 0.9 h |  | 34.9 ng/mL | < 50% | 6.6 | 232 ng/g | 142 ng·h/mL |  |  | < 50% | < 50% | 49.4 ng/mL | 6.4 L/kg |  |
| Cc1c(Cl)cccc1NC(=O)CN1CCC(OCc2ccc(Cl)c(F)c2)CC1 | 437 nM | 441 nM | < 50% |  |  | 2360 nM |  |  |  | < 50% |  |  |  |  | 76.2% |  | < 50% |  |  |  |
| Fc1cc(COC2CCN(Cc3cc4ccc(Cl)cc4[nH]3)CC2)ccc1Cl | 324 nM | 323 nM | < 50% |  |  | 557 nM |  |  |  | < 50% |  |  |  | 65% | 76% |  |  |  |  |  |
| Fc1cc(COC2CCN(Cc3cn4ccccc4n3)CC2)ccc1Cl | 135 nM | 134 nM | < 50% | 22.4% | 1.8% |  | 0.6 h | > 10 µM | 29.9 ng/mL | < 50% | 15.5 | 453 ng/g | 125 ng·h/mL | 57% |  | < 50% |  | 52.2 ng/mL | 5.1 L/kg |  |
| Cc1c(Cl)cccc1NC(=O)CN1CCC(OCc2ccc(F)c(F)c2)CC1 | 302 nM | 299 nM | < 50% | 1.5% | 0.3% | 2460 nM | 4.4 h |  | 45.8 ng/mL | < 50% | 2.9 | 134 ng/g | 747 ng·h/mL |  | 67% |  | < 50% | 5.5 ng/mL | 5.5 L/kg |  |
